This is an account of results in publication PMC7944402, “Resin-acid derivatives bind to multiple sites on the voltage-sensor domain of the Shaker potassium channel” (The Journal of General Physiology, 2021).

Where “and” joins values, the source holds several entries; their conditions need not be identical. Equal values may be shown once.

What all share (type): cell-based
Assay [1] has as its target T1, Shaker KV channel R362Q/R365Q/W454A (Drosophila melanogaster, UniProt P08510, DEL6-46/R362Q/R365Q/W454A).
T1 construct: expressed in transfected cells; host or cells: Xenopus laevis oocytes (RNA injection)
Description: Two-electrode voltage clamp in Xenopus oocytes: R362Q/R365Q/W454A. As to conditions: 100 μM, pH 9.0, R362Q/R365Q/W454A. The text has this:
(§1) The Shaker H4 channel (GenBank accession no. NM_167595.3; [Kamb et al., 1987]), with removed N-type inactivation due to a Δ6-46 deletion (ShH4IR, in Bluescript II KS(+) plasmid; [Hoshi et al., 1990]), is referred to as the WT Shaker KV channel. Addition of two positively charged arginines (M356R/A359R) at the extracellular top of the voltage sensor increases the effect of charged lipophilic compounds ([Ottosson et al., 2014], [2015], [2017]). […] However, for the resin-acid derivatives studied in the present investigation, R362 reduced the effect. Therefore, we specifically refer to the two added arginines just outside S4 (M356R/A359R) as the 2R motif. […]
(§2) Electrophysiological experiments were made 1–6 d after RNA injection. K^+ currents were measured with the two-electrode voltage-clamp technique (GeneClamp 500B amplifier; Axon Instruments) as described previously ([Ottosson et al., 2015]; [Silverå Ejneby et al., 2018]). […]
(§3) The conductance, G(V), was calculated as G(V)=I/(V−VK), (1) where I is the steady-state current measured at the end of each test-voltage sweep (100 ms after onset; Clampfit 10.5; Molecular Devices), V is the absolute membrane voltage, and VK is the reversal potential for K^+ ions (set to −80 mV). […] The resin-acid–induced G(V) shift was calculated as V1/2 (compound) − V1/2 (control). The relative change in GMAX was calculated as GMAX (compound) / GMAX (control). […]
For orientation: Two-electrode voltage clamp holds a large cell at a set potential and records current.

In assay [2] the target is T2, Shaker KV channel R362Q/R365Q/W454A/F280I (Drosophila melanogaster, UniProt P08510, DEL6-46/F280I/R362Q/R365Q/W454A).
T2 construct: expressed in transfected cells; host or cells: Xenopus laevis oocytes (RNA injection)
T2 sequence (P08510 other isoform, or with tags, fused parts or gaps DEL6-46/F280I/R362Q/R365Q/W454A): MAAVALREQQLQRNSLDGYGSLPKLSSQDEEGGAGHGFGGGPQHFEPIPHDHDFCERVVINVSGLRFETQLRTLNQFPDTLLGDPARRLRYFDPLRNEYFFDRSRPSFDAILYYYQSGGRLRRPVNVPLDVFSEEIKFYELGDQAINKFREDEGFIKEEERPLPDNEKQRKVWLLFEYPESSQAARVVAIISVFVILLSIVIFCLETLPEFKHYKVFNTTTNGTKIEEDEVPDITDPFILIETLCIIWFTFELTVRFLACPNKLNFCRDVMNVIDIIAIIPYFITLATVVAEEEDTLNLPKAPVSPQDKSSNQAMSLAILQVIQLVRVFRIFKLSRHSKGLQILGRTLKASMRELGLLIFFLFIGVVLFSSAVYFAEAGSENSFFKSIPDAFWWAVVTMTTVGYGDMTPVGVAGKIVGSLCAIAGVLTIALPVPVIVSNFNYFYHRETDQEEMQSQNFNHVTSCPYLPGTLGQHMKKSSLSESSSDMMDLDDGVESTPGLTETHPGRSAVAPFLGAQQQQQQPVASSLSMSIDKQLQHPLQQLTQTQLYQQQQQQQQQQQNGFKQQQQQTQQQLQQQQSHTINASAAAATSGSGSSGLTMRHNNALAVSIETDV
The assay is described as follows: Two-electrode voltage clamp in Xenopus oocytes: R362Q/R365Q/W454A/F280I. As to conditions: 100 μM, pH 9.0, R362Q/R365Q/W454A/F280I.
Description: as §1, §2, §3

A further assay addresses T3, Shaker KV channel R362Q (Drosophila melanogaster, UniProt P08510, DEL6-46/R362Q).
T3 construct: expressed in transfected cells; host or cells: Xenopus laevis oocytes (RNA injection)
The assay is described as follows: Two-electrode voltage clamp in Xenopus oocytes: R362Q. As to conditions: 100 μM, pH 9.0, R362Q.
Description: (§4) The Shaker H4 channel (GenBank accession no. NM_167595.3; [Kamb et al., 1987]), with removed N-type inactivation due to a Δ6-46 deletion (ShH4IR, in Bluescript II KS(+) plasmid; [Hoshi et al., 1990]), is referred to as the WT Shaker KV channel. Addition of two positively charged arginines (M356R/A359R) at the extracellular top of the voltage sensor increases the effect of charged lipophilic compounds ([Ottosson et al., 2014], [2015], [2017]). […] However, for the resin-acid derivatives studied in the present investigation, R362 reduced the effect. Therefore, we specifically refer to the two added arginines just outside S4 (M356R/A359R) as the 2R motif. Mutations were introduced with site-directed mutagenesis and verified with sequencing as described previously ([Börjesson et al., 2010]). RNA injection and oocyte handling were performed as before ([Börjesson et al., 2010]; [Ottosson et al., 2015]). All animal experiments were approved by the Linköping’s local Animal Care and Use Committee.
as §2
(§5) The conductance, G(V), was calculated as G(V)=I/(V−VK), (1) where I is the steady-state current measured at the end of each test-voltage sweep (100 ms after onset; Clampfit 10.5; Molecular Devices), V is the absolute membrane voltage, and VK is the reversal potential for K^+ ions (set to −80 mV). […] The resin-acid–induced G(V) shift was calculated as V1/2 (compound) − V1/2 (control). The relative change in GMAX was calculated as GMAX (compound) / GMAX (control). The concentration dependence for the G(V) shifts was calculated as ΔV= ΔVMAX/(1 +EC50/c), (3) where ΔV is the voltage shift, ΔVMAX is the voltage shift at saturating concentration, c is the concentration of the tested compound, and EC50 is the concentration at which half-maximum response occurs.

Assay [3] has as its target T4, Shaker KV channel R362Q/R365Q (Drosophila melanogaster, UniProt P08510, DEL6-46/R362Q/R365Q).
T4 construct: expressed in transfected cells; host or cells: Xenopus laevis oocytes (RNA injection)
The assay is described as follows: Two-electrode voltage clamp in Xenopus oocytes: R362Q/R365Q. The conditions noted are these: 100 μM, pH 9.0, R362Q/R365Q.
Description: as §4, §2, §5

Assay [4] addresses T5, Shaker KV channel M356R/A359R/W454A (Drosophila melanogaster, UniProt P08510, A359R/DEL6-46/M356R/W454A).
T5 construct: expressed in transfected cells; host or cells: Xenopus laevis oocytes (RNA injection)
The assay is described as follows: Two-electrode voltage clamp in Xenopus oocytes: 2R motif/W454A.
Description: as §4
(§6) Electrophysiological experiments were made 1–6 d after RNA injection. K^+ currents were measured with the two-electrode voltage-clamp technique (GeneClamp 500B amplifier; Axon Instruments) as described previously ([Ottosson et al., 2015]; [Silverå Ejneby et al., 2018]). The amplifier’s leak compensation was used, and the currents were low-pass filtered at 5 kHz. The control solution contained (in mM) 88 NaCl, 1 KCl, 15 HEPES, 0.4 CaCl2, and 0.8 MgCl2, and pH was set with NaOH. All experiments were made at room temperature (20°C–23°C). The holding potential was set to −80 mV (or −100 mV if the mutant was not fully closed at −80 mV).
Stock solutions were stored at −20°C and diluted in control solution just before experiments. The test solution was added to the oocyte bath manually with a syringe. […] To make sure all Wu50 molecules were negatively charged, the pH of the control solution was set to 9.0 before the experiments. This pH change had only small effects on channel kinetics and the G(V) relation.
as §5

Assay [5] addresses T6, WT Shaker KV channel (ShH4IR) (Drosophila melanogaster, UniProt P08510, DEL6-46).
T6 construct: expressed in transfected cells; host or cells: Xenopus laevis oocytes (RNA injection)
The assay is described as follows: Two-electrode voltage clamp of Shaker KV channels expressed in Xenopus laevis oocytes: WT.
Description: (§7) The Shaker H4 channel (GenBank accession no. NM_167595.3; [Kamb et al., 1987]), with removed N-type inactivation due to a Δ6-46 deletion (ShH4IR, in Bluescript II KS(+) plasmid; [Hoshi et al., 1990]), is referred to as the WT Shaker KV channel. […] Therefore, we specifically refer to the two added arginines just outside S4 (M356R/A359R) as the 2R motif. Mutations were introduced with site-directed mutagenesis and verified with sequencing as described previously ([Börjesson et al., 2010]). RNA injection and oocyte handling were performed as before ([Börjesson et al., 2010]; [Ottosson et al., 2015]). All animal experiments were approved by the Linköping’s local Animal Care and Use Committee.
as §6
(§8) Stock solutions were stored at −20°C and diluted in control solution just before experiments. The test solution was added to the oocyte bath manually with a syringe. […] To make sure all Wu50 molecules were negatively charged, the pH of the control solution was set to 9.0 before the experiments.
(§9) The conductance, G(V), was calculated as G(V)=I/(V−VK), (1) where I is the steady-state current measured at the end of each test-voltage sweep (100 ms after onset; Clampfit 10.5; Molecular Devices), V is the absolute membrane voltage, and VK is the reversal potential for K^+ ions (set to −80 mV). The conductance was fitted with a Boltzmann equation (GraphPad Prism 5; GraphPad Software, Inc.) GK(V)=GMAX/{1+exp[(V½−V)/s]}, (2) where GMAX is the amplitude (maximal conductance) of the curve, V is the absolute membrane voltage, V1/2 is the midpoint, and s is the slope. The resin-acid–induced G(V) shift was calculated as V1/2 (compound) − V1/2 (control). The relative change in GMAX was calculated as GMAX (compound) / GMAX (control). The concentration dependence for the G(V) shifts was calculated as ΔV= ΔVMAX/(1 +EC50/c), (3) where ΔV is the voltage shift, ΔVMAX is the voltage shift at saturating concentration, c is the concentration of the tested compound, and EC50 is the concentration at which half-maximum response occurs.

The target of assay [6] is T7, Shaker KV channel with the 2R motif (M356R/A359R) (Drosophila melanogaster, UniProt P08510, A359R/DEL6-46/M356R).
T7 construct: expressed in transfected cells; host or cells: Xenopus laevis oocytes (RNA injection)
T7 sequence (P08510 other isoform, or with tags, fused parts or gaps DEL6-46/M356R/A359R): as the sequence (P08510 other isoform, or with tags, fused parts or gaps DEL6-46/F280I/R362Q/R365Q/W454A) above, with I239F, M315R, A318R, Q321R, Q324R, A413W counted along it
The assay is described as follows: Two-electrode voltage clamp in Xenopus oocytes: 2R motif channel.
Description: as §7, §6, §8, §9

The target of assay [7] is T8, Shaker KV channel R362Q/W454A (Drosophila melanogaster, UniProt P08510, DEL6-46/R362Q/W454A).
T8 construct: expressed in transfected cells; host or cells: Xenopus laevis oocytes (RNA injection)
T8 sequence (P08510 with tags, fused parts or gaps DEL6-46/R362Q/W454A): as the sequence (P08510 other isoform, or with tags, fused parts or gaps DEL6-46/F280I/R362Q/R365Q/W454A) above, with I239F, Q324R counted along it
The assay is described as follows: Two-electrode voltage clamp in Xenopus oocytes: R362Q/W454A. As to conditions: 100 μM, pH 9.0, R362Q/W454A.
Description: as §1, §2, §3

The mark [8] stands for this setting: 100 μM, pH 9.0, M356R/A359R/W454A.
The mark [9] stands for this setting: 100 μM, pH 9.0, M356R/A359R (=2R).

T4 sequence (P08510 other isoform, or with tags, fused parts or gaps DEL6-46/R362Q/R365Q): as the sequence (P08510 other isoform, or with tags, fused parts or gaps DEL6-46/F280I/R362Q/R365Q/W454A) above, with I239F, A413W counted along it
T6 sequence (P08510 other isoform, or with tags, fused parts or gaps DEL6-46): as the sequence (P08510 other isoform, or with tags, fused parts or gaps DEL6-46/F280I/R362Q/R365Q/W454A) above, with I239F, Q321R, Q324R, A413W counted along it
T3 sequence (P08510 other isoform, or with tags, fused parts or gaps DEL6-46/R362Q): as the sequence (P08510 other isoform, or with tags, fused parts or gaps DEL6-46/F280I/R362Q/R365Q/W454A) above, with I239F, Q324R, A413W counted along it
T5 sequence (P08510 with tags, fused parts or gaps DEL6-46/M356R/A359R/W454A): as the sequence (P08510 other isoform, or with tags, fused parts or gaps DEL6-46/F280I/R362Q/R365Q/W454A) above, with I239F, M315R, A318R, Q321R, Q324R counted along it
T1 sequence (P08510 with tags, fused parts or gaps DEL6-46/R362Q/R365Q/W454A): as the sequence (P08510 other isoform, or with tags, fused parts or gaps DEL6-46/F280I/R362Q/R365Q/W454A) above, with I239F counted along it

Take `C[C@@]1(C(=O)O)CCC[C@]2(C)c3cc(Cl)c(Cl)c(Cl)c3CC[C@@H]12` [Wu50]: the “GMAX (rel.)” value in assay [1] is 0.57 rel; in assay [2] it was 0.05 rel; on Shaker KV channel R362Q it was 1.25 rel; in assay [3], 0.55 rel; in assay [4] (setting [8]), 1.28 rel; in assay [5] (100 μM, pH 9.0, WT, GMAX (compound)/GMAX (control)), 1.36 rel. Moreover, the “GMAX (rel.)” value in assay [6] (setting [9]) is recorded as 1.58 rel; in assay [7], 1.28 rel. Further, the “ΔVG(V) (G(V) shift)” value was −24.7 ± 3.0 mV and -24.7 mV in assay [1]; −49.6 ± 1.2 mV and -49.6 mV on Shaker KV channel R362Q; −25.5 ± 4.6 mV and -25.5 mV in assay [3]; -39.6 mV in assay [4] (setting [8]); −25.5 ± 1.4 mV and -25.5 mV in assay [5] (100 μM, pH 9.0, WT); −40.0 ± 2.7 mV and -40.0 mV in assay [6] (setting [9]). Further, the “ΔVG(V) (G(V) shift)” value in assay [7] was −41.0 ± 4.4 mV and -41.0 mV. The EC50 in assay [4] is 27.9 ± 9.2 µM; in assay [5] (WT, pH 9.0, concentration-response (Eq. 3), read-out: EC50 of the G(V) shift (apparent affinity)) it was 29.1 ± 3.5 µM; in assay [6] (2R motif, pH 9.0, concentration-response (Eq. 3), read-out: EC50 of the G(V) shift (apparent affinity)) it was 30 ± 5 µM. Besides, the “ΔVMAX (maximum G(V) shift)” value in assay [4] (2R motif/W454A, pH 9.0, concentration-response) was −62.3 ± 6.5 mV; in assay [6] (2R motif, pH 9.0, concentration-response (Eq. 3)), −56.5 ± 2.6 mV. The “G(V) shift, representative recording (Fig. 1 D)” value in assay [6] (100 µM, pH 9.0, 2R motif) is listed as −40.7 mV. Moreover, in assay [6] (2R motif versus WT, Wu50 pH 9.0, Wu161 and Wu181 pH 7.4), the “Increase of the maximum G(V) shift by the 2R motif” value was determined as 57%. The “Increase of the G(V) shift by the 2R motif, in the negative direction” value in assay [6] (magnitude depending on the background mutations, 100 μM, pH 9.0) is on record as 4–32 mV.
